Article PMC11096368, “Transcriptomic signature, bioactivity and safety of a non-hepatotoxic analgesic generating AM404 in the midbrain PAG region” (Scientific Reports, 2024)
“Also recorded” adds a separate entry of the source. Read-outs that look alike come from different tables or passages of the source.

What was measured:
[1] = Phase 1 multiple ascending dose (MAD) pharmacokinetics; assay type: in vivo, human; conditions: for half-life: human, plasma, oral
Protocol: A randomized, double-blind, placebo-controlled Phase 1 trial (ClinicalTrials.gov identifier: NCT05484414) (02/08/2022) was conducted to assess the safety, tolerability, food effect, pharmacokinetics (PK), and pharmacodynamics (PD) of single and multiple ascending doses of SRP-001 (Quotient Sciences, Miami FL USA; Fig. 3h - k and Methods). The trial was conducted in accordance with the International Council for Harmonisation of Technical Requirements for Pharmaceuticals for Human Use (ICH), Guideline for GCP: Consolidated Guidance (E6), attained Institutional Review Board approval, and all applicable regulatory requirements for Phase 1, First in Human clinical trials. Safety measurements and plasma samples to determine PK parameters were collected throughout the study for all subjects and reviewed by the Safety Review Committee. PK stopping criteria were established to assure that systemic exposure to SRP-001 was less than or equal to the systemic exposure achieved at the NOAEL doses in the 28-day repeat-dose toxicology studies in the rat and dog. The trial’s Safety Advisory Committee has approved the publication of the Phase 1 results.
SRP-001 was administered as an oral nanosuspension to 56 healthy volunteers across five Single Ascending Dose (SAD) and two Multiple Ascending Dose (MAD) cohorts, with 42 subjects receiving SRP-001 and 14 receiving a placebo.
A two-part randomized, double-blind, placebo-controlled Phase 1 trial was conducted to assess the safety, tolerability, PK and PD of SRP-001 ascending doses (Quotient Sciences, Miami, FL, USA). The study was conducted in accordance with the International Council for Harmonisation of Technical Requirements for Pharmaceuticals for Human Use (ICH), Guideline for GCP: Consolidated Guidance (E6), and applicable regulatory requirements(s) including clinical research guidelines established by the Basic Principles defined in the U.S. 21 CFR Parts 50, 56, and 312 and the principles enunciated in the Declaration of Helsinki (revised version Fortaleza 2013). The clinical protocol and informed consent form were reviewed and approved by an Institutional Review Board (IRB; Advarra IRB, 6100 Merriweather Drive, Suite 600, Columbia, MD 21,044; Quotient Protocol No. SRP-101 and Quotient Sciences Study No. QSC205130; Quotient Sciences Miami, 3898 NW 7th Street, Miami, FL 33,126.). The study comprises a SAD (Part 1) assessment that includes a food effect assessment that contributes data to inform a subsequent MAD (Part 2) dose-ranging study. Safety measurements were collected throughout the study for all subjects. Blood samples were collected to determine the PK parameters of SRP-001 (ClinicalTrials.gov identifier: NCT05484414) (02/08/2022).

hERG current = target: T1, hERG current (Homo sapiens, UniProt Q12809); assay: Cardiotoxicity assay (hERG); assay type: cell-based; conditions: human embryonic kidney cells
T1 construct: expressed in transfected cells; host or cells: human embryonic kidney cells
T1 sequence (Q12809 whole entry): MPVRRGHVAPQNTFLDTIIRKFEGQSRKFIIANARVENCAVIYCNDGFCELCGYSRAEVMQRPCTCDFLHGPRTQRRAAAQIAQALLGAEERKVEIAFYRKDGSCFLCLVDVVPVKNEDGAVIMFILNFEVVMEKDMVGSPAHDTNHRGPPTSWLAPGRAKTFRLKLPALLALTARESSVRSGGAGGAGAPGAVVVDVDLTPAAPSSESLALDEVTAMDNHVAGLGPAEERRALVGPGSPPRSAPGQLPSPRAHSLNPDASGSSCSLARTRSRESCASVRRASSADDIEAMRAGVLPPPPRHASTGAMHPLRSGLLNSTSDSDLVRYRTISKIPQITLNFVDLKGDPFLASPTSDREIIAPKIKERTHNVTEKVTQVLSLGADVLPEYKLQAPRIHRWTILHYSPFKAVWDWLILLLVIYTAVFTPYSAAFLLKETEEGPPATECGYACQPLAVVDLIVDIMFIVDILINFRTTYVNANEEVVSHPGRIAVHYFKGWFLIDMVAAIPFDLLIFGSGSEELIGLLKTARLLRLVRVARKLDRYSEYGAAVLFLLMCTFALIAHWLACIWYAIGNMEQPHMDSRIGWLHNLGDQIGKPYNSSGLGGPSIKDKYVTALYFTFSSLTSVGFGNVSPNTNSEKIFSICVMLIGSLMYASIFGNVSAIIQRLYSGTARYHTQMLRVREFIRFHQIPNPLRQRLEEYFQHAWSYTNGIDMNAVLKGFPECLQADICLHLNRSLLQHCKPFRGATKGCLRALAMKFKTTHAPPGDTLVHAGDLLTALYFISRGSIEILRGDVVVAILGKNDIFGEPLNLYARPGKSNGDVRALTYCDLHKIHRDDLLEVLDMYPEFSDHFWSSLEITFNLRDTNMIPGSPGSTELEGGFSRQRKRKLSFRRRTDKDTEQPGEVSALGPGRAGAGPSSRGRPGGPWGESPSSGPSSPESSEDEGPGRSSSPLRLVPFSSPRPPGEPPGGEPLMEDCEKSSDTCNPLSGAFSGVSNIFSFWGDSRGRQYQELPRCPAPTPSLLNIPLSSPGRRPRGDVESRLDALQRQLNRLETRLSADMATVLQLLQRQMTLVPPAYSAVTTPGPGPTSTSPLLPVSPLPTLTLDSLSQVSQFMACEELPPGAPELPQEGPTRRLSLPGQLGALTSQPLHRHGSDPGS
Protocol: The effects of SRP-001 on hERG current amplitude at physiologic temperatures were evaluated over a nominal concentration range of 0.1 μM to […]. A vehicle group (10% DMSO) was included in the study for comparison, and dofetilide (10 nM) was used as a reference substance. The vehicle and positive controls indicated appropriate sensitivity of the test systems. […] Next, the potential acute effects of oral SRP-001 on cardiovascular function in conscious telemetered beagle dogs was done using a Latin Square design; 4 male naïve beagle dogs each received vehicle (10% DMSO: 10% labrasol: 80% PEG400) and three doses (30, 90, and 150 mg/kg) of SRP-001 nanosuspension by oral gavage. […] A single dose was administered on the day of dosing, and a washout period of seven days was allowed between doses. One-min means of hemodynamic parameters, as well as ECG parameters and body temperature, were measured for a period of at least 24 h. One-min tracings of the ECGs were obtained at 15 min prior to dosing and at 30 min, 1, 2, 4, 8, 12, and 24 h post-dose. Qualitative evaluation of the ECGs was done by a board-certified veterinary cardiologist.

male Sprague–Dawley rats = assay: Neuropharmacological profile, modified Irwin/Functional Observational Battery (GLP); assay type: in vivo; conditions: for Body temperature versus vehicle: 1 h post-dose
Protocol: Any potential neuropharmacological effects of orally administered SRP-001 in rats were assessed in three groups of eight male Sprague–Dawley rats. Each was orally administered SRP-001 at a single dose of 220, 440, or 660 mg/kg. Vehicle (10% labrasol: 10% DMSO: 80% PEG400) was administered to an additional group of eight rats. The dose volume was 10 mL/kg. […] All observations were made at ± 5 min for the observations through 1 h post-dose and ± 15 min for the later observations. Body temperature was measured 1 h following dose administration.

beagle dogs = assay: Two-day oral dose toxicity and pharmacokinetic study (non-GLP); assay type: in vivo
Protocol: SRP-001 was supplied by Olon Ricerca Bioscience as an off-white powder and then prepared as dosing suspensions for oral administration via gavage (Calvert Labs/Altasciences, Scott Township, PA USA). Six experimentally non-naïve male Beagle dogs (3/dose), at least 7 months old and weighing 7.2 to 10.2 kg prior to treatment initiation, were administered 100 or 900 mg/kg/d SRP-001. Animals were dosed three times daily (3–5 h between doses) for 2 d. Mortality/morbidity was performed twice daily. On the day of dosing, animals were observed prior to each dose administration and approximately 1–3 h after each dose. Animals were also observed once on day 3. Body weights were recorded for all animals prior to the first dose administration on days 1 and 3, and food consumption was recorded daily. Blood for bioanalytical evaluation was collected at selected timepoints on day 1. Following the completion of the study, surviving animals were not euthanized and were returned to the Calvert colony. […]
Following a single administration of 900 mg SRP-001 oral suspension in the fed state, plasma concentrations of SRP-001 were observed from the first sampling time-point of 1 h post-dose for all subjects. […] In a two-day oral dose toxicity and pharmacokinetic (PK) study of […] in Beagle dogs, peak plasma concentrations of SRP-001 were detected within a 30-min to 1-h window post-administration. […]

In the case of `CCN(CC)C(=O)c1ccccc1S(=O)(=O)NCC(=O)Nc1ccc(O)cc1` [SRP-001, N,N-diethyl-2-[[2-(4-hydroxyanilino)-2-oxo-ethyl]sulfamoyl]benzamide], the “PK parameters on Day 5 versus Day 1” value ([1]; Phase 1 MAD cohort) is reported as “decrease”, the half-life ([1]; 500 mg, MAD, 500 mg dose, Day 1, read-out: Geometric mean T1/2 (converted)) is reported as 3.06 h and the half-life ([1]; 500 mg, MAD, 500 mg dose, Day 5, read-out: Geometric mean T1/2 (converted)) is reported as 4.92 h. For the same compound, the half-life ([1]; 1000 mg, MAD, 1,000 mg dose, Day 1, read-out: Geometric mean T1/2 (converted)) was 4.05 h, the half-life ([1]; 1000 mg, MAD, 1,000 mg dose, Day 5, read-out: Geometric mean T1/2 (converted)) was 9.77 h and the half-life ([1]; MAD cohorts, read-out: Arithmetic mean T1/2 (converted)) was 5.57 h. The half-life ([1]; Phase 1 trial, read-out: Half-life) was 4.9 to 9.8 h, the “Signal in in vitro hERG assay” value (hERG current) was “absent relevant signal” and the “Body temperature versus vehicle” value (male Sprague–Dawley rats; 220 or 440 mg/kg) was “not affected”. The “Body temperature versus vehicle” value (male Sprague–Dawley rats; high-dose group (660 mg/kg)) was “significantly (p ≤ 0.05) lower; also recorded: lower body temperature; also recorded: Decreased body temp”, the “Neuropharmacological or clinical signs” value (male Sprague–Dawley rats; oral, 220, 440, 660 mg/kg, through 24 h post-dose) was “No apparent neuropharmacological or clinical signs; also recorded: No apparent neuropharmacological effects” and the Dose tolerated (beagle dogs; 3 times daily for 2 days) was 900 mg/kg/day. For the same compound, the “Time of peak plasma concentrations post-administration” value (beagle dogs; dog, in vivo) was 30-min to 1-h.
